# US8394969B2, “Cyclic benzimidazole derivatives useful as anti-diabetic agents” (Merck Sharp & Dohme Corp., priority 2008, dated 2013)
# Where a name gives a salt, the structure may show the parent alone.
# Molecular target: recombinant human AMPK complex 1 (containing α1β1γ1) (Homo sapiens, UniProt Q13131+Q9Y478)
# Test: […] (in vitro AMPK activation assay)
# Assay type: biochemical
# Conditions: read-out: % Maximum AMP Activation of human AMPK Complex 1, recombinant human AMPK complex 1 (α1β1γ1); basal activity subtracted
# Description: Recombinant viruses were generated by cotransfection of AMPK/pBacPak9 clones with Baculogold baculovirus DNA (Pharmingen) in spodoptera frugiperda 21 cells according to the manufacturer's instructions. Each round of virus amplification was performed for 5 days in Grace's medium containing 10% serum. Virus that had been subjected to three rounds of amplification was used for all protein production procedures. To express the AMPK complex, sf21 cells were adapted to serum free medium (SF900 II, Invitrogen) by sequential dilution from serum containing stocks into SF900 II medium and maintained in shaker flasks at 90 rpm at 27° C. The recombinant AMPK enzyme complex was produced by triple infection, one recombinant virus for each of the subunits, in sf21 cells under serum free conditions. […] Cells were harvested by centrifugation at 10,000×g for 15 minutes after 72 hours of infection with viruses. The insect cell pellet from 2 liters of culture was resuspended in 50 ml lysis buffer (20 mM Tris-HCl, 50 mM NaCl, 50 mM NaF, 30 mM Na PPi, 0.25 M sucrose, 10 mM ZnCl2, 2 mM DTT, 0.4 mg/ml digitonin) and subjected to two cycles of freeze-thaw lysis in a dry-ice ethanol bath. Insoluble material was removed by centrifugation at 10,000×g and the supernatant was fractionated with use of polyethylene glycol (PEG).
# The total in vitro AMPK activation assay volume is 50 μl in a 96-well plate. […] The reaction was initiated with addition of the enzyme. After 30-minute incubation at 30° C., the reaction was stopped by addition of 80 μl 1% H3PO4. Aliquots (100 μl) were transferred to 96-well MultiScreen plates (MAPHNOB50; Millipore Corp., Bedford, Mass., USA). The plate was washed three times with 1% H3PO4 followed by detection in a Top-count. The counts per minute from the basal activity (the reaction without activator) was subtracted from each well and the data were expressed as % maximum AMP activation followed by EC50 calculation.
# recombinant human AMPK complex 1 (containing α1β1γ1), sequence (Q13131 whole entry): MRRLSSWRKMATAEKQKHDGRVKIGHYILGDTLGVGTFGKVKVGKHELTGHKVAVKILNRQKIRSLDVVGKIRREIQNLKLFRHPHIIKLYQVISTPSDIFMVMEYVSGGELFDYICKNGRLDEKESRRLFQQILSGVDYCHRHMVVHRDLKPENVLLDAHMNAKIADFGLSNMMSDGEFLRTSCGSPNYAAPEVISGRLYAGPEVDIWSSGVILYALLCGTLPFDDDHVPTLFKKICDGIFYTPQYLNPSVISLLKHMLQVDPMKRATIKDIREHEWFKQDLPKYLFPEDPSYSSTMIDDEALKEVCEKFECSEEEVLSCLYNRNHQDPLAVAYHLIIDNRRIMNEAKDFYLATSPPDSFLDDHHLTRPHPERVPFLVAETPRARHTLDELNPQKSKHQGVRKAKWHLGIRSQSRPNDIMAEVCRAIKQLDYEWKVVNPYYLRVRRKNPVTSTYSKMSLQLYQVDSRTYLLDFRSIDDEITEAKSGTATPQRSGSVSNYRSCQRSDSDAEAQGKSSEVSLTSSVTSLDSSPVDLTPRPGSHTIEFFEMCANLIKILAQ
# recombinant human AMPK complex 1 (containing α1β1γ1), sequence (Q9Y478 whole entry): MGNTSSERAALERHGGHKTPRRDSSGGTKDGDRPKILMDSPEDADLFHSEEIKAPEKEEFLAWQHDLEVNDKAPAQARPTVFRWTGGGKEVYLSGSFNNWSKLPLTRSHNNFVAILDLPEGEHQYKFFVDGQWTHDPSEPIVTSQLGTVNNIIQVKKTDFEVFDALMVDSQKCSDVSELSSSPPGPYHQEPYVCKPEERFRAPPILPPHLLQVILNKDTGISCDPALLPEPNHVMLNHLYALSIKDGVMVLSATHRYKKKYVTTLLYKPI
# recombinant human AMPK complex 1 (containing α1β1γ1), sequence (P54619 whole entry partner): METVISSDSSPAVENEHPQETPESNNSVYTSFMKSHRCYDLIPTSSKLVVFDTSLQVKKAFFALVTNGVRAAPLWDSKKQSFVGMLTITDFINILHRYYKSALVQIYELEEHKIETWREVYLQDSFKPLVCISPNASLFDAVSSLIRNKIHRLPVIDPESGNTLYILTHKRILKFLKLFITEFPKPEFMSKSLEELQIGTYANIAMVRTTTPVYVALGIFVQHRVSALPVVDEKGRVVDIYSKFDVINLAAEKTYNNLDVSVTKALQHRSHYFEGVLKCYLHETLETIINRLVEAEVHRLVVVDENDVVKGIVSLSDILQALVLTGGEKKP
row,SMILES,Emax
1,"O=C(O)Cn1nnnc1Sc1nc2cc(-c3ccc(-c4ccccc4)cc3)c(Cl)cc2[nH]1 [Example 55, [5-(5-biphenyl-4-yl-6-chloro-1H-benzo-imidazol-2-ylsulfanyl)-tetrazol-1-yl]-acid, ammonium salt]",> 80%
2,"O=C(O)c1cccc(Oc2nc3cc(-c4ccc(-c5ccccc5)cc4)c(Cl)cc3[nH]2)c1 [Example 56, 3-(5-biphenyl-4-yl-6-chloro-1H-benzo-imidazol-2-yloxy)-benzoic acid, ammonium salt]",> 80%

# Same assay, conditions: recombinant human AMPK complex 1 (α1β1γ1); basal activity subtracted; read-out: % Maximum AMP Activation of human AMPK Complex 1
row,SMILES,Emax
1,"O=C(O)c1ccc(Oc2nc3cc(-c4ccc(-c5ccccc5)cc4)c(Cl)cc3[nH]2)cc1C(=O)O [Example 36, 4-(5-Biphenyl-4-yl-6-chloro-1H-benzoimidazol-2-yloxy)-phthalic acid]",> 80%
2,"OCc1cccc(Oc2nc3cc(-c4ccc(-c5ccccc5)cc4)c(Cl)cc3[nH]2)c1 [Example 37, [3-(5-Biphenyl-4-yl-6-chloro-1H-benzoimidazol-2-yloxy)-phenyl]-methanol]",> 80%
3,"O=C(O)c1ccc(Oc2nc3cc(-c4ccc(-c5ccccc5)cc4)c(Cl)cc3[nH]2)cc1 [Example 38, 4-(5-Biphenyl-4-yl-6-chloro-1H-benzoimidazol-2-yloxy)-benzoic acid]",> 80%
4,"O=C(O)c1ccc(Oc2nc3cc(-c4ccc(-c5ccccc5)cc4)c(Cl)cc3[nH]2)cc1Cl [Example 39, 4-(5-Biphenyl-4-yl-6-chloro-1H-benzoimidazol-2-yloxy)-2-chloro-benzoic acid]",> 80%
5,"O=C(O)Cn1nnc(-c2cccc(Oc3nc4cc(-c5ccc(-c6ccccc6)cc5)c(Cl)cc4[nH]3)c2)n1 [Example 40, {5-[3-(5-Biphenyl-4-yl-6-chloro-1H-benzoimidazol-2-yloxy)-phenyl]-tetrazol-2-yl}-acetic acid]",> 80%
6,"COC(=O)Cn1nnc(-c2cccc(Oc3nc4cc(-c5ccc(-c6ccccc6)cc5)c(Cl)cc4[nH]3)c2)n1 [Example 41, {5-[3-(5-Biphenyl-4-yl-6-chloro-1H-benzoimidazol-2-yloxy)-phenyl]-tetrazol-2-yl}-acetic acid methyl ester]",> 80%
7,"N#Cc1cccc(Oc2nc3cc(-c4ccc(-c5ccccc5)cc4)c(Cl)cc3[nH]2)c1 [Example 42, 3-(5-Biphenyl-4-yl-6-chloro-1H-benzoimidazol-2-yloxy)-benzonitrile]",> 80%
8,"Cc1ccc(C#Cc2cc3nc(Oc4ccc(C)c(C(=O)O)c4)[nH]c3cc2Cl)cc1 [Example 45, 5-(6-Chloro-5-p-tolyethylnyl-1H-benzoimidazol-2-yloxy)-2-methyl-benzoic acid]",> 80%
9,"O=c1[nH]nc(-c2cccc(Oc3nc4cc(-c5ccc(-c6ccccc6)cc5)c(Cl)cc4[nH]3)c2)o1 [Example 47, 5-[3-(5-Biphenyl-4-yl-6-chloro-1H-benzoimidazol-2-yloxy)-phenyl]-3H-[1,3,4]oxadiazol-2-one]",> 80%
10,"O=C(O)c1cc(Oc2nc3cc(C#Cc4ccccc4)c(Cl)cc3[nH]2)cc(C(=O)O)c1 [Example 48, 5-(6-Chloro-5-phenylethynyl-1H-benzoimidazol-2-yloxy)-isophthalic acid]",> 80%
11,"COC(=O)c1cc(Oc2nc3cc(C#Cc4ccccc4)c(Cl)cc3[nH]2)cc(C(=O)OC)c1 [Example 49, 5-(6-Chloro-5-phenylethynyl-1H-benzoimidazol-2-yloxy)-isophthalic acid dimethyl ester]",> 80%
12,"Cc1cc(Oc2nc3cc(-c4ccc(-c5ccccc5)cc4)c(Cl)cc3[nH]2)cc(C(=O)O)c1 [Example 50, 3-(5-Biphenyl-4-yl-6-chloro-1H-benzoimidazol-2-yloxy)-5-methyl-benzoic acid]",> 80%
13,"Cc1ccc(Oc2nc3cc(CCc4ccccc4)c(Cl)cc3[nH]2)cc1C(=O)O [Example 51, 5-(6-Chloro-5-phenethyl-1H-benzoimidazol-2-yloxy)-2-methyl-benzoic acid]",> 80%
14,"O=C(O)c1cccc(Nc2nc3cc(-c4ccc(-c5ccccc5O)cc4)c(Cl)cc3[nH]2)c1 [Example 52, 3-[6-Chloro-5-(2′-hydroxy-biphenyl-4-yl)-1H-benzoimidazol-2-ylamino]-benzoic acid]",> 80%
15,"Cc1cc(Oc2nc3cc(-c4ccc(-c5ccccc5O)cc4)c(Cl)cc3[nH]2)cc(C(=O)O)c1 [Example 53, 3-[6-Chloro-5-(2′-hydroxy-biphenyl-4-yl)-1H-benzoimidazol-2-yloxy]-5-methyl-benzoic acid]",> 80%
16,"O=C(O)c1cc(Oc2nc3cc(-c4ccc(-c5ccccc5O)cc4)c(Cl)cc3[nH]2)cc(C(=O)O)c1 [Example 54, 5-[6-Chloro-5-(2′-hydroxy-biphenyl-4-yl)-1H-benzoimidazol-2-yloxy]-isophthalic acid]",> 80%
17,"Cc1ccc(Oc2nc3cc(-c4cnn(C)c4)c(Cl)cc3[nH]2)cc1C(=O)O [Example 57, 5-[6-Chloro-5-(1-methyl-1H-pyrazol-4-yl)-1H-benzoimidazol-2-yloxy]-2-methyl-benzoic acid]",> 80%
18,"Cc1ccc(Oc2nc3cc(-c4ccc(-n5cccn5)cc4)c(Cl)cc3[nH]2)cc1C(=O)O [Example 58, 5-[6-Chloro-5-(4-pyrazol-1-yl-phenyl)-1H-benzoimidazol-2-yloxy]-2-methyl-benzoic acid]",> 80%
19,"O=C(O)c1cc(Oc2nc3cc(-c4ccccc4O)c(Cl)cc3[nH]2)ccc1Cl [Example 59, 2-Chloro-5-[6-chloro-5-(2-hydroxy-phenyl)-1H-benzoimidazol-2-yloxy]-benzoic acid]",> 80%
20,"O=C(O)c1cc(Oc2nc3cc(-c4ccc(CO)cc4)c(Cl)cc3[nH]2)ccc1Cl [Example 60, 2-Chloro-5-[6-chloro-5-(4-hydroxymethyl-phenyl)-1H-benzoimidazol-2-yloxy]-benzoic acid]",> 80%
21,"O=C(O)c1cc(Oc2nc3cc(-c4ccccc4)c(Cl)cc3[nH]2)ccc1Cl [Example 61, 2-Chloro-5-(6-chloro-5-phenyl-1H-benzoimidazol-2-yloxy)-benzoic acid]",> 80%
22,"O=C(O)c1cccc(Sc2nc3cc(-c4ccc(-c5ccccc5)cc4)c(Cl)cc3[nH]2)c1 [Example 64, 3-[(5-biphenyl-4-yl-6-chloro-1H-benizmidazol-2-yl)thio]benzoic acid]",> 80%
23,"O=C(O)c1cccc(Sc2nc3cc(-c4cccs4)c(Cl)cc3[nH]2)c1 [Example 65, 3-{[6-chloro-5-(2-thienyl)-1H-benzimidazol-2-yl]thio}benzoic acid]",> 80%
24,"Cc1ccc(Oc2nc3cc(-c4ccc5ccccc5c4)c(Cl)cc3[nH]2)cc1C(=O)O [Example 66, 5-{[6-chloro-5-(2-naphthyl)-1H-benzimidazol-2-yl]oxy}-2-methylbenzoic acid]",> 80%
25,"Cc1ccc(Oc2nc3cc(C#Cc4ccc(CCO)cc4)c(Cl)cc3[nH]2)cc1C(=O)O [Example 69, 5-{6-chloro-5-[4-(2-hydroxy-ethyl)-phenylethynyl]-1H-benzoimidazol-2-yloxy}-2-methyl-benzoic acid]",> 80%
26,"Cc1ccc(Oc2nc3cc(C#Cc4ccc(-c5cccnc5)cc4)c(Cl)cc3[nH]2)cc1C(=O)O [Example 70, 5-[6-Chloro-5-(4-pyridin-3-yl-phenylethynyl)-1H-benzoimidazol-2-yloxy]-2-methyl-benzoic acid]",> 80%
27,"Cc1ccc(Oc2nc3cc(C#Cc4ccc(-n5cccn5)cc4)c(Cl)cc3[nH]2)cc1C(=O)O [Example 71, 5-[6-Chloro-5-(4-pyrazol-1-yl-phenylethynyl)-1H-benzoimidazol-2-yloxy]-2-methyl-benzoic acid]",> 80%
28,"Cc1ccc(Oc2nc3cc(C#Cc4ccc(CN)cc4)c(Cl)cc3[nH]2)cc1C(=O)O [Example 72, 5-[5-(4-Aminomethyl-phenylethynyl)-6-chloro-1H-benzimidazol-2-yloxy]-2-methyl-benzoic acid]",> 80%
29,"Cc1ccc(Oc2nc3cc(C#Cc4ccc(-c5ncc[nH]5)cc4)c(Cl)cc3[nH]2)cc1C(=O)O [Example 73, 5-{6-Chloro-5-[4-(1H-imidazol-2-yl)-phenylethynyl]1H-benzoimidazol-2-yloxy}-2-methyl-benzoic acid]",> 80%

# Same assay, conditions: recombinant human AMPK complex 1 (α1β1γ1); read-out: EC50
row,SMILES,EC50
1,"Cc1ccc(Oc2nc3cc(C#Cc4ccccc4F)c(Cl)cc3[nH]2)cc1C(=O)O [Example 67, 5({6-chloro-5-[(2-fluorophenyl)ethynyl]-1H-benzimidazol-2-yl}oxy)-2-methylbenzoic acid]",3 nM
2,"Cc1ccc(Oc2nc3cc(-c4ccc(-c5ccc(=O)n(C)c5)cc4)c(Cl)cc3[nH]2)cc1C(=O)O [Example 68, 5-({6-chloro-5-[4-(1-methyl-6-oxo-1,6-dihydropyridin-3-yl)phenyl]-1H-benzimidazol-2-yl}oxy)-2-methylbenzoic acid]",7 nM
